# Target: AT2 Receptor (AT2R) (Homo sapiens (Human), UniProt P50052)
# Experiment: Measurement of inhibitory activity on AT2 receptor (Tag-lite HTRF, Tb-labeled AT2R cells, angiotensin receptor red agonist)
# Type: binding
# Conditions: 1 h room temperature
# Method: Measurement of Inhibitory Activity on AT1 Receptor ([…])/AT2 Receptor (AT2R)
# Through the following steps, the inhibitory activity of the compound on AT1R/AT2R (IC50 value) was determined:
# 1) An appropriate amount of 1×TLB (Tag-lite Buffer) was prepared and well mixed for use.
# 2) The compound was diluted by 10 times with ddH2O or DMSO. The compound was then dilute to 4 times of the working concentration with 1×TLB and mixed well for use.
# 3) 8600 nM Tag-lite angiotensin receptor red agonist was diluted to 12 nM (4×Kd) with 1×TLB.
# 4) 5 ml 1×TLB was taken into a 15 ml centrifuge tube.
# 5) After thawing 1 tube of Tb-labeled AT1R/AT2R cells in a 37° C. water bath, the cells were quickly transferred to the 1×TLB in step 4), mixed gently, and centrifuged at 1200 g for 5 minutes at room temperature.
# 6) The supernatant was aspirated gently, and the cells were resuspended and mixed in 2.7 ml 1×TLB, and then placed at room temperature until use.
# 7) 10 μl cells were added to all test wells, and 5 μl 4× working solution of the compound from step 2) was added to the corresponding test wells. 5 μl 4× Tag-lite angiotensin receptor red agonist well diluted in step 3) was added to all test wells.
# 8) After leaving the reaction plate at room temperature for 1 h, data were measured and analyzed using Envision HTRF Reader, and the half inhibitory concentration (IC50) of the compound on AT1R/AT2R was calculated with the GraphPad Prism four-parameter equation.
# Sequence of AT2 Receptor (AT2R) (P50052 whole entry): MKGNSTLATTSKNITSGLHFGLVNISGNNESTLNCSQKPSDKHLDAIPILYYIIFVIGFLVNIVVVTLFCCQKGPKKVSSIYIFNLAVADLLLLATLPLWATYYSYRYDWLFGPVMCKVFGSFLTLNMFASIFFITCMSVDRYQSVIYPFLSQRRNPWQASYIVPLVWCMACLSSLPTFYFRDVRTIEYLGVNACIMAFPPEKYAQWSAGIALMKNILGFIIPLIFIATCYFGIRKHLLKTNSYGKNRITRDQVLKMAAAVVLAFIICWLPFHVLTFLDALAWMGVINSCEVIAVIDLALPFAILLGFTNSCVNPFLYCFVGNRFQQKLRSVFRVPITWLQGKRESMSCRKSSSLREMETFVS
row,SMILES,IC50 [nM]
1,"CN(Cc1ccccc1)C(=O)N1C[C@@H]2CC[C@H]([C@H]1C(=O)O)N2C(=O)C(c1ccccc1)c1ccccc1 [Compound C62, (1R,2S,5S)-3-(benzyl(methyl)carbamoyl)-8-(2,2-diphenylacetyl)-3,8-diazabicyclo[3.2.1]octane-2-carboxylic acid]",104
2,"O=C(O)[C@@H]1[C@H]2CC[C@@H](CN1C(=O)N(c1ccccc1)c1ccccc1)N2C(=O)N1CCC[C@@H]1c1cc(F)ccc1F [Compound C141, (1R,2S,5S)-8-((R)-2-(2,5-difluorophenyl)pyrrolidine-1-carbonyl)-3-(diphenylcarbamoyl)-3,8-diazabicyclo [3.2.1]octane-2-carboxylic acid]",7.99
3,"O=C(O)[C@@H]1[C@H]2CC[C@@H](CN1C(=O)N(c1ccccc1)c1ccccc1)N2C(=O)N(Cc1ccccc1)CC(F)(F)F [Compound C128, (1R,2S,5S)-8-(benzyl(2,2,2-trifluoroethyl)carbamoyl)-3-(diphenylcarbamoyl)-3,8-diazabicyclo [3.2.1]octane-2-carboxylic acid]",21.5
4,"O=C(O)[C@@H]1[C@H]2CC[C@@H](CN1C(=O)C(c1ccccc1)c1ccccc1)N2C(=O)N1c2ccccc2C=Cc2ccccc21 [Compound C9, (1R,2S,5S)-8-(5H-dibenzo[b,f]azepine-5-carbonyl)-3-(2,2-diphenylacetyl)-3,8-diazabicyclo [3.2.1]octane-2-carboxylic acid]",107
5,"C#Cc1ccc(CN(C)C(=O)N2[C@H]3CC[C@@H]2[C@@H](C(=O)O)N(C(=O)N(c2ccccc2)c2ccccc2)C3)cc1 [Compound C171, (1R,2S,5S)-3-(diphenylcarbamoyl)-8-((4-ethynylbenzyl) (methyl)carbamoyl)-3,8-diazabicyclo [3.2.1]octane-2-carboxylic acid]",19.2
6,"O=C(O)[C@@H]1[C@H]2CC[C@@H](CN1C(=O)N(c1ccccc1)c1ccccc1)N2C(=O)N1CCCC1c1ccccc1 (stereo partly drawn) [Compound C138, (1R,2S,5S)-3-(diphenylcarbamoyl)-8-(2-phenylpyrrolidine-1-carbonyl)-3,8-diazabicyclo[3.2.1] octane-2-carboxylic acid]",11.7
7,"C=Cc1ccc(CN(C)C(=O)N2[C@H]3CC[C@@H]2[C@@H](C(=O)O)N(C(=O)N(c2ccccc2)c2ccccc2)C3)cc1 [Compound C170, (1R,2S,5S)-3-(diphenylcarbamoyl)-8-(methyl(4-vinylbenzyl)carbamoyl)-3,8-diazabicyclo[3.2.1] octane-2-carboxylic acid]",3.87
8,"CN(Cc1cccnc1)C(=O)N1[C@H]2CC[C@@H]1[C@@H](C(=O)O)N(C(=O)N(c1ccccc1)c1ccccc1)C2 [Compound C124, (1R,2S,5S)-3-(diphenylcarbamoyl)-8-(methyl(pyridine-3-ylmethyl)carbamoyl)-3,8-diazabicyclo [3.2.1]octane-2-carboxylic acid]",37.8
9,"CC(c1ccsc1)N(C)C(=O)N1[C@H]2CC[C@@H]1[C@@H](C(=O)O)N(C(=O)N(c1ccccc1)c1ccccc1)C2 (stereo partly drawn) [Compound C229, (1R,2S,5S)-3-(diphenylcarbamoyl)-8-(methyl (1-(thiophene-3-yl)ethyl)carbamoyl)-3,8-diazabicyclo[3.2.1] octane-2-carboxylic acid]",10.1
10,"CCN(Cc1ccc(Cl)s1)C(=O)N1[C@H]2CC[C@@H]1[C@@H](C(=O)O)N(C(=O)N(c1ccccc1)c1ccccc1)C2 [Compound C281, (1R,2S,5S)-8-(((5-chlorothiophene-2-yl)methyl) (ethyl)carbamoyl)-3-(diphenylcarbamoyl)-3,8-diazabicyclo[3.2.1] octane-2-carboxylic acid]",20.3
11,"CCN(Cc1ccsc1)C(=O)N1[C@H]2CC[C@@H]1[C@@H](C(=O)O)N(C(=O)N(c1ccccc1)c1ccccc1)C2 [Compound C207, (1R,2S,5S)-3-(diphenylcarbamoyl)-8-(ethyl (thiophene-3-ylmethyl)carbamoyl)-3,8-diazabicyclo [3.2.1]octane-2-carboxylic acid]",10.4
12,"O=C(O)[C@H]1[C@@H]2CC[C@H](CN1C(=O)C(c1ccccc1)c1ccccc1)N2C(=O)C(c1ccccc1)c1ccccc1 [Compound C2, (1S,2R,5R)-3,8-bis (2,2-diphenylacetyl)-3,8-diazabicyclo [3.2.1]octane-2-carboxylic acid]",9.11
13,"CN(Cc1ccc(Br)cc1)C(=O)N1[C@H]2CC[C@@H]1[C@@H](C(=O)O)N(C(=O)N(c1ccccc1)c1ccccc1)C2 [Compound C165, (1R,2S,5S)-8-((4-bromobenzyl) (methyl)carbamoyl)-3-(diphenylcarbamoyl)-3,8-diazabicyclo [3.2.1]octane-2-carboxylic acid]",14
14,"CCN(Cc1cccs1)C(=O)N1[C@H]2CC[C@@H]1[C@@H](C(=O)O)N(C(=O)N(c1ccccc1)c1ccccc1)C2 [Compound C201, (1R,2S,5S)-3-(diphenylcarbamoyl)-8-(ethyl(thiophene-2-ylmethyl)carbamoyl)-3,8-diazabicyclo [3.2.1]octane-2-carboxylic acid]",18.4
15,"CN(Cc1ccc2cc[nH]c2c1)C(=O)N1[C@H]2CC[C@@H]1[C@@H](C(=O)O)N(C(=O)N(c1ccccc1)c1ccccc1)C2 [Compound C249, (1R,2S,5S)-8-(((1H-indole-6-yl)methyl)(methyl)carbamoyl)-3-(diphenylcarbamoyl)-3,8-diazabicyclo [3.2.1]octane-2-carboxylic acid]",10.9
16,"CC(NC(=O)N1[C@H]2CC[C@@H]1[C@@H](C(=O)O)N(C(=O)N(c1ccccc1)c1ccccc1)C2)c1ccccc1 (stereo partly drawn) [Compound C117, (1R,2S,5S)-3-(diphenylcarbamoyl)-8-((1-phenylethyl)carbamoyl)-3,8-diazabicyclo [3.2.1]octane-2-carboxylic acid]",61.3
17,"C/C(=C\c1ccccc1)C(=O)N1[C@H]2CC[C@@H]1[C@@H](C(=O)O)N(C(=O)C(c1ccccc1)c1ccccc1)C2 [Compound C231, (1R,2S,5S)-3-(2,2-diphenylacetyl)-8-((E)-2-methyl-3-phenylacryloyl)-3,8-diazabicyclo [3.2.1]octane-2-carboxylic acid]",103
18,CN(Cc1csc2ccccc12)C(=O)N1[C@H]2CC[C@@H]1[C@@H](C(=O)O)N(C(=O)N(c1ccccc1)c1ccccc1)C2 [Compound C246],10.1
19,"O=C(O)[C@@H]1[C@H]2CC[C@@H](CN1C(=O)N(c1ccccc1)c1ccccc1)N2C(=O)N(c1ccc(F)cc1)c1ccc(F)cc1 [Compound C145, (1R,2S,5S)-8-(bis(4-fluorophenyl)carbamoyl)-3-(diphenylcarbamoyl)-3,8-diazabicyclo [3.2.1]octane-2-carboxylic acid]",110
20,"O=C(O)[C@H]1[C@@H]2CC[C@H](CN1C(=O)C(c1ccccc1)c1ccccc1)N2C(=O)OCc1ccccc1 [Compound C76, (1S,2R,5R)-8-((benzyloxy)carbonyl)-3-(2,2-diphenylacetyl)-3,8-diazabicyclo [3.2.1]octane-2-carboxylic acid]",69.7
21,"CCN(Cc1ccsc1)C(=O)N1[C@H]2CC[C@@H]1[C@@H](C(=O)O)N(C(=O)C(c1ccccc1)c1ccccc1)C2 [Compound C188, (1R,2S,5S)-3-(2,2-diphenylacetyl)-8-(ethyl(thiophene-3-ylmethyl)carbamoyl)-3,8-diazabicyclo [3.2.1]octane-2-carboxylic acid]",7.11
22,"CN(Cc1csc(Cl)c1)C(=O)N1[C@H]2CC[C@@H]1[C@@H](C(=O)O)N(C(=O)N(c1ccccc1)c1ccccc1)C2 [Compound C186, (1R,2S,5S)-8-(((5-chlorothiophene-3-yl)methyl) (methyl)carbamoyl)-3-(diphenylcarbamoyl)-3,8-diazabicyclo [3.2.1]octane-2-carboxylic acid]",64.6
23,"CCN(Cc1cscn1)C(=O)N1[C@H]2CC[C@@H]1[C@@H](C(=O)O)N(C(=O)N(c1ccccc1)c1ccccc1)C2 [Compound C209, (1R,2S,5S)-3-(diphenylcarbamoyl)-8-(ethyl(thiazole-4-ylmethyl)carbamoyl)-3,8-diazabicyclo [3.2.1]octane-2-carboxylic acid]",81.4
24,"CN(Cc1ccccc1)C(=O)N1[C@H]2CC[C@@H]1[C@@H](C(=O)O)N(C(=O)C1(c3ccccc3)CCCCC1)C2 [Compound C120, (1R,2S,5S)-8-(benzyl(methyl)carbamoyl)-3-(1-phenylcyclohexane-1-carbonyl)-3,8-diazabicyclo [3.2.1]octane-2-carboxylic acid]",350
25,"O=C(O)[C@@H]1[C@H]2CC[C@@H](CN1C(=O)C(c1ccccc1)c1ccccc1)N2C(=O)OCc1c(F)cccc1F [Compound C36, (1R,2S,5S)-8-(((2,6-diflurorbenzyl)oxy)carbonyl)-3-(2,2-diphenylacetyl)-3,8-diazabicyclo [3.2.1]octane-2-carboxylic acid]",20.7
26,"O=C(O)[C@@H]1[C@H]2CC[C@@H](CN1C(=O)N(c1ccccc1)c1ccccc1)N2C(=O)N1CCc2ccccc2C1 [Compound C131, (1R,2S,5S)-3-(diphenylcarbamoyl)-8-(1,2,3,4-tetrahydroisoquinoline-2-carbonyl)-3,8-diazabicyclo [3.2.1]octane-2-carboxylic acid]",495

# — US11453690B2, “Receptor inhibitor, pharmaceutical composition comprising same, and use thereof” (BEIJING TIDE PHARMACEUTICAL CO., LTD., priority 2018, dated 2022)
